From EP0268396B1, “4-(benzoyl)thiophene(or furan)-sulfonamide and derivatives thereof for the topical treatment of elevated intraocular pressures” (Merck & Co., Inc., priority 1986, dated 1988)
Structures can show the parent of a compound that is named as a salt.

What follows are compounds tested on a-chymotrypsinized rabbit eye (assay: Effect of topically administered drug on the α-chymotrypsin-induced elevation of IOP in the rabbit). Conditions: dose 0.5 %, single 50 µl drop applied topically in hydroxyethylcellulose (HEC) vehicle; maximum, statistically significant drop in IOP during the 5 hour duration of the assay.
Type: in vivo
For CCCCNCc1ccc(C(=O)c2csc(S(N)(=O)=O)c2)cc1 [Example 4-n-BuNHCH2-], the “MAX. IOP DROP (mm Hg)” value was -3.0 mm Hg. With CC(C)CNCc1cccc(C(=O)c2csc(S(N)(=O)=O)c2)c1 [Example 3-i-BuNHCH2-, 4-[3-(lsobutylaminomethyl)benzoyl]thiophene-2-sulfonamid] the “MAX. IOP DROP (mm Hg)” value was -7.3 mm Hg. NS(=O)(=O)c1cc(C(=O)c2cccc(CNCc3ccccn3)c2)cs1 [3-( [drawing] CH2NHCH2-), 4-[3-(2-Pyridylmethylaminomethyl)]benzoylthiophene-2-sulfonamide dihydrochloride] was tested, and the “MAX. IOP DROP (mm Hg)” value was -4.0 mm Hg. For CC(C)CN(C)Cc1cccc(C(=O)c2csc(S(N)(=O)=O)c2)c1 [3-i-BuN(CH3)CH2-, 4-[3-(N-lsobutyl-N-methyl)aminomethyl]benzoylthiophene-2 sulfonamide], the “MAX. IOP DROP (mm Hg)” value was -4.0 mm Hg.
